{"source": "patent US20250263444A1", "about": "“vIRF3-Derived Peptide and Use Thereof for Preventing or Treating Cancer” (priority 2022, published 2025)", "key": {"ATP-citrate lyase (ACLY)": {"test_system": "ATP-citrate lyase (ACLY)", "assay": "Immunoblotting with anti-acetyl-lysine antibody of LEC stable cell lines treated with ACLY inhibitor", "format": "cell-based", "details": "LEC lines pCDH, V5-vIRF3, V5-vIRF3(Δ250-280) treated with BMS303141", "description": "Acetyl-CoA is a crucial metabolite that provides acetyl groups for acetylation reaction of proteins including histone. To better understand the importance of acetyl-CoA upregulation by vIRF3 in LEC, first, it was confirmed whether vIRF3 may increase the overall acetylation level in LEC. To this end, cell lysates were analyzed by immunoblotting (IB) using an anti-acetyl-lysine antibody. […] Especially, cytosolic acetyl-CoA, which was involved in lysine acetylation of protein, regulating the activity, stability, or localization of many cell proteins is primarily generated by the translocation of citrate from the mitochondria to the cytoplasm via ATP-citrate lyase (ACLY). Therefore, three LEC stable cell lines encoding expression vectors of pCDH, V5-vIRF3, and V5-vIRF3(Δ250-280) were treated with an ACLY inhibitor BMS303141 and then analyzed by IB with an anti-acetyl-lysine antibody."}, "tetrameric form of PKM2": {"target": "T1, tetrameric form of PKM2 (Homo sapiens, UniProt P14618)", "T1 construct": "endogenous in cells; host or cells: E6/E7-immortalised LECs stably expressing V5-vIRF3 by lentivirus (PKM2 endogenous, vIRF3 transduced)", "T1 sequence (P14618 2-531 limits assumed)": "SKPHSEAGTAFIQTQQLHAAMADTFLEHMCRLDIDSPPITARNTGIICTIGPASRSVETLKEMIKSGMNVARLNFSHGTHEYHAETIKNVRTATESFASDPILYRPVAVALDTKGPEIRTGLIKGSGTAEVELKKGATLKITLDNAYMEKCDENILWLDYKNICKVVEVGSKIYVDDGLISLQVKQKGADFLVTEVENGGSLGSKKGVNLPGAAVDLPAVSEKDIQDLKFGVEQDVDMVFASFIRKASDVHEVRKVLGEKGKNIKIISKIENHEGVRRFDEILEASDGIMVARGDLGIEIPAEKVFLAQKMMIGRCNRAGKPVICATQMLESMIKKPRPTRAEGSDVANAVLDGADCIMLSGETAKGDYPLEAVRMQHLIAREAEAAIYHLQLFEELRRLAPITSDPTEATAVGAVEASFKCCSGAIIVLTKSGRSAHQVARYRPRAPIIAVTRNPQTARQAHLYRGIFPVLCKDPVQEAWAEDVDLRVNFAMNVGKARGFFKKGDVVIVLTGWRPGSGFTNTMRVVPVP", "assay": "PKM2 cross-linking and gradient SDS-PAGE immunoblotting", "format": "cell-based", "details": "LECs expressing vIRF3; FIG. 8B", "description": "293T cells were infected with indicated combination of plasmids and harvested 48 hours after infection. The cells were lysed with a NP40 lysis buffer supplemented with a protease inhibitor (150 mM NaCl, 0.5% NP40, 50 mM pH 8.0 Tris-HCl) and treated with 0.1% glutaraldehyde for 4 minutes at room temperature. Thereafter, gradient SDS-PAGE was performed with NuPAGE 4-12% Bis-Tris gel (Invitrogen) and analyzed by immunoblotting."}, "[1]": {"test_system": "recombinant KSHV-infected LECs", "assay": "Xenograft model, subcutaneous peptide administration", "format": "in vivo, mice"}, "PKM2 [2]": {"target": "T2, PKM2 (Homo sapiens, UniProt P14618)", "T2 sequence (P14618 whole entry, the tested form may be a part)": "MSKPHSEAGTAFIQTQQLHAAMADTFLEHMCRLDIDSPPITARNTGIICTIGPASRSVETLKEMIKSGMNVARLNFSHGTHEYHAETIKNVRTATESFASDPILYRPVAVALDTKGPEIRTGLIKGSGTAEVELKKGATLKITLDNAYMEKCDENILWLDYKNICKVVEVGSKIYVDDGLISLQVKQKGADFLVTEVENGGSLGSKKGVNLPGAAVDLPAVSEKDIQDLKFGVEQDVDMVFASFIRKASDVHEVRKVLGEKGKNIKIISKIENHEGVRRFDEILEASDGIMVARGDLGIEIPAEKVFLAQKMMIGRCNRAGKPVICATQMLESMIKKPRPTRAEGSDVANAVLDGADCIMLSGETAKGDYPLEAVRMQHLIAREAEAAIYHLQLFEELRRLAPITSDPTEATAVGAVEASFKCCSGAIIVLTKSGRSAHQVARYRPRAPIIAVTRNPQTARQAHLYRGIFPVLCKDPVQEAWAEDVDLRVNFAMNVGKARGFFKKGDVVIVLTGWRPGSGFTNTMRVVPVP", "assay": "Binding of vIRF3-derived peptide fragments to PKM2 (GST-pull down / immunoprecipitation, FIG. 7)", "parameters": "expressed in transfected cells", "text": "A pCMV-HA-hPKM2 plasmid was provided by from the Miyagi Cancer Center Research Institute, Natori, Japan. In addition, a vIRF3 (Δ250-280) mutant was generated by sequentially deleting 10 amino acids from alanine 250 using a QuikChange XL site-directed mutagenesis kit (Agilent). Primer pairs used in vIRF3 deletion mutation were as follows: vIRF3(Δ250-260) forward 5′-[…]-3′ (SEQ ID NO: 8), vIRF3(Δ250-260) reverse 5′-[…]-3′ (SEQ ID NO: 9), vIRF3(Δ260-270) forward 5′-[…]-3′ (SEQ ID NO: 10), vIRF3(Δ260-270) reverse 5′-[…]-3′ (SEQ ID NO: 11), vIRF3(Δ270-280) forward 5′-[…]-3′ (SEQ ID NO: 12), and vIRF3(Δ270-280) reverse 5′-[…]-3′ (SEQ ID NO: 13). GST-tagged vIRF3 250-260, 260-270, and 270-280 were subcloned into a pEBG-GST vector with BamHI and NotI restriction sites using the following primers: vIRF3(250-260) forward 5′-[…] GGC-3′ (SEQ ID NO: 14), vIRF3(250-260) reverse 5′-[…] CG-3′ (SEQ ID NO: 15), vIRF3(260-270) forward 5′-GATCCGCCACCAT […]-3′ (SEQ ID NO: 16), vIRF3(260-270) reverse 5′-[…] G-3′ (SEQ ID NO: 17), vIRF3(270-280) forward 5′-[…] GC-3′ (SEQ ID NO: 18), and vIRF3 270-280 reverse 5′-[…] GGCG-3′ (SEQ ID NO: 19).\nThe indicated cells were infected regardless of the presence or absence of combination of plasmids. […] Cell lysates were immunoprecipitated against indicated proteins and analyzed by immunoblotting according to methods known in the art."}, "LEC-V5-vIRF3": {"test_system": "LEC-V5-vIRF3", "assay": "Chorioallantoic membrane (CAM) invasion assay", "format": "in vivo, chick", "details": "0.2 mg peptide at 24 and 48 hours after cell seeding; IHC; FIG. 8D", "description": "The chick fertilized eggs were incubated at 37.5° C. with 70% humidified atmosphere in a Rcom D-50 incubator (Autoelex). After embryonic day (ED) 5, a 1.5 cm square hole was opened on the eggshell and sealed with a sterile parafilm tape. Embryos were monitored by daily candling. On ED 10, sterile silicone rings were placed onto the CAM of the embryo and added with indicated cells, and then the cells were seeded. 0.2 mg of TAT (a control peptide containing only a TAT sequence of HIV-1 (synthesized by Bionics)) or TAT-VDP according to the present invention (vRIF3-derived aa250-260 peptide bound with a TAT sequence (synthesized by Bionics)) was treated at 24 and 48 hours after cell seeding. Approximately 1 cm^2 of CAM around the silicone ring was harvested and fixed with 4% paraformaldehyde at 4° C. for 24 hours. Thereafter, samples were treated for immunohistochemistry and Hematoxyling and Eosin (H&E) staining."}, "PKM2 [3]": {"target": "T2, PKM2", "assay": "Pyruvate kinase activity assay in LECs treated with TAT or TAT-VDP", "format": "cell-based", "parameters": "endogenous in cells; host or cells: E6/E7-immortalised LECs (LEC-V5-vIRF3 or LEC-vector)", "details": "LEC-V5-vIRF3 cells; VDP fused to HIV-1 TAT; FIG. 8C", "description": "Pyruvate kinase activity assay was performed with a Pyruvate Kinase Assay Kit (Sigma Aldrich) according to manufacturer's instructions. Briefly, LECs expressing a pCDH vector, vIRF3, and vIRF3(Δ250-280), respectively were harvested and washed twice with 1×PBS. The cells were suspended in 50 μl of a pyruvate kinase assay buffer and incubated for 15 minutes. Cell debris was removed by centrifugation at 13,000 rpm for 15 minutes. The supernatant was transferred to a 96-well plate and added with a kinase assay mixture. Absorbance was measured at 570 nm wavelength using a Varioskan Lux microplate reader (Thermo scientific)."}}}
{"molecule": "COc1ccc(-c2ccccc2)cc1NS(=O)(=O)c1cc(Cl)cc(Cl)c1O", "note": "[BMS303141]", "values": [{"measurement": "increase of total acetylation levels by vIRF3", "setting": "ATP-citrate lyase (ACLY)", "result": "the increase of total acetylation levels was not confirmed"}]}
{"molecule": "TAT-VDP: vRIF3-derived aa250-260 peptide bound with a TAT sequence of HIV-1 for intracellular delivery (synthesized by Bionics) (RRRQRRKKRGYGEQGVHYMLACA)", "values": [{"measurement": "vIRF3-mediated tetrameric form of PKM2", "setting": "tetrameric form of PKM2", "result": "sufficiently prevented"}, {"measurement": "tumor formation", "setting": "[1]; 0.2 mg peptide twice per week for 30 days, subcutaneous, FIG. 8E", "result": "remarkably inhibited"}]}
{"molecule": "vIRF3(260-270): fragment peptide of amino acids 260-270 of KSHV vIRF3 (SEQ ID NO: 4) (EMDMLMRAMCD)", "values": [{"measurement": "binding to PKM2", "setting": "PKM2 [2]", "result": "mutual-bound to PKM2"}]}
{"molecule": "vIRF3(270-280): fragment peptide of amino acids 270-280 of KSHV vIRF3 (SEQ ID NO: 5) (DEDLFDLLGIP)", "values": [{"measurement": "binding to PKM2", "setting": "PKM2 [2]", "result": "mutual-bound to PKM2"}]}
{"molecule": "vIRF3-derived peptide: vIRF3-derived peptide of SEQ ID NO: 1, included within aa 250-280 of KSHV vIRF3 (ACALMYHVGQEMDMLMRAMCDEDLFDLLGIP)", "values": [{"measurement": "size and volume of tumor", "setting": "[1]; subcutaneous injection, animal model transplanted with LECs infected with KSHV", "result": "significantly reduced"}, {"measurement": "invasion of LEC-V5-vIRF3 in CAM (invasive activity)", "setting": "LEC-V5-vIRF3", "result": "significantly inhibited"}, {"measurement": "PK activity upregulated by vIRF3 expression", "setting": "PKM2 [3]", "result": "significantly inhibited"}]}
